Laboratory results published in article PMC7537338, “CD47/SIRPα blocking peptide identification and synergistic effect with irradiation for cancer immunotherapy” (Journal for Immunotherapy of Cancer, 2020).
Like-named read-outs stand apart in the source and are kept apart here. One block for each compound: values may come before it. Where a SMILES comes first, the peptide text is derived from it. Where no end group is shown, it is not given here. [ ]: non-standard residue; d: D form.

Assays:
[1] = target: T1, human CD47/SIRPα interaction (Homo sapiens, UniProt Q08722); test: Blocking assay, human CD47 protein binding to CHO cells expressing human SIRPα (flow cytometry); conditions: for Blocking rate relative to pep-20 (%): blockade of peptides to hCD47 relative to parent pep-20, Table S4
T1 construct: Human or mouse CD47-IgV-Domain-hIg fusion proteins (20 nM, Sino Biological, China); purchased Sino Biological (hIg fusion); ACROBiosystems (biotinylated human CD47); host or cells: SIRPα partner: CHO cells stably expressing human SIRPα
T1 sequence (Q08722 19-127 limits assumed): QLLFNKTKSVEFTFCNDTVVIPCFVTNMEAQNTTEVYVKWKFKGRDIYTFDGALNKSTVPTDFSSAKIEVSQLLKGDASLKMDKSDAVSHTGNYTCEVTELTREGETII
Procedure: (§1) Human or mouse CD47-IgV-Domain-hIg fusion proteins (20 nM, Sino Biological, China), or biotinylated human CD47 protein (20 nM, ACROBiosystems, USA) was incubated with titrating concentrations of peptides or anti-human CD47 antibody (B6H12) in phosphate-buffered saline (PBS, pH 7.4) for 1 hour at 4°C. The mixture was incubated with human or mice SIRPα overexpressed Chinese hamster ovary cells for 30 min at 4°C, washed to remove unbound mixtures and phycoerythrin (PE)-conjugated goat anti-human IgG or PE-conjugated streptavidin was incubated (eBioscience, USA). Cells were then analyzed by flow cytometry (BD Biosciences, USA). The IC50 was determined from sigmoidal dose response curves illustrated by GraphPad Prism.

[2] = target: T2, human CD47-IgV-Domain protein (Homo sapiens, UniProt Q08722); test: MST binding assay to human CD47-IgV-Domain protein
T2 construct: Human or mouse CD47-IgV-Domain proteins were labeled with NT-647 dye
T2 sequence (Q08722 19-127 limits assumed): as above
Procedure: (§2) Human or mouse CD47-IgV-Domain proteins were labeled with NT-647 dye following the microscale thermophoresis (MST) assay protocol, and the labeled protein used for each assay was about 50 to 200 nM. Unlabeled peptides or ligand protein solution was diluted for appropriate concentration serially in buffer (50 mM Tris, 150 mM NaCl, 10 mM MgCl2, 0.05% Tween-20, 0.5% DMSO and pH 7.5). The labeled proteins were then added to peptides or ligand protein solutions by 1∶1 (v/v). The samples were loaded into silica capillaries after incubation at room temperature for 30 min. Binding constants were determined by the MST assay according to manufacturer’s instructions with 20% or 40% light emitting diode (LED) power, 40% MST power at 25°C (Nano Temper, Monolith NT.115, Germany). Data analysis were performed by using a Nanotemper Analysis software.

in vivo = conditions: C57BL/6, mouse, iv, 40 mg/kg
Procedure: (E, F) The pharmacokinetic analysis
(§3) of pep-20 and pep- 20-D12. The plasma concentration-time curve of pep-20 (E) and
Data are represented as means ± SEM.
Pharmacokinetic assays in vivo 140
(§4) C57BL/6 mice with weight of 18-20 g were administrated with a single 141
(§5) intravenous dose of 40 mg/kg of peptides. Blood samples were collected an d 142
(§6) centrifuged at 8000 rpm for 10 min at the indicated intervals. Plasma wa s 143
(§7) further mixed with 10% HClO4 at a ratio of 2∶1 (v/v) and centrifuged at 16,000 144
(§8) rpm for 10 min. The supernatant was analyzed by RP-HPLC. The 145 pharmacokinetic parameters of peptides were determined by 146 noncompartmental analysis (NCA) using Phoenix WinNonlin software program 147 5.2.1 (Certara, Princeton, USA). The maximum plasma concentration Cmax and 148 elimination half-life (T1/2) were calculated.

C57BL/6 naïve mice = test: Mouse toxicity assays in normal mice; type: in vivo, C57BL/6 mice
Procedure: toxicity analysis. Normal C57BL/6 mice were injected s.c. with 2 mg/kg of pep-20 or normal saline as the negative control daily from day 1 to 14 ( n = 5). On days 0 and 14, hematologic parameters were analyzed. Red blood cell count (A), hemoglobin level ( B) have no significant difference between pep-20 group and control group. (C) Representative H&E staining images of pep-20 treated. Normal C57BL/6 mice were injected s.c. with 2 mg/kg of pep-20 or normal saline as the negative control daily for 14 days (n = 5). The mouse primary organs of heart, liver, spleen, lung, kidney and thymus […]
Table S2. Organ coefficients analysis of pep-20-treated mice.
Heart Liver Spleen Lung Kidney thymus
Normal C57BL/6 mice were injected s.c. with 2 mg/kg pep-20 or normal saline as the negative control daily for 14 days (n = 5). The mice organ tissues were stripped for organ […]
Table S3. Hepatic damage analysis of pep-20-treated mice. […]
negative control daily for 14 days (n = 5). Mice serum samples were collected and hepatic damage analysis were performed for standard aspartate aminotransferase assay (AST) and alanine aminotransferase assay (ALT).
111 Mouse toxicity assays
112 Normal C57BL/6 mice were injected s.c. with 2 mg/kg peptides or normal 113 saline as the negative control daily from day 1 to 14 (n = 5). On days 0 and 14, 114 mice blood samples were collected via retro-orbital bleed. […]
116 Hematologic and blood biochemical parameters were analyzed by ADVIA 117 2120i Hematology Analyzer (Siemens, Germany). […]

[3] = Pharmacokinetic assay in vivo; conditions: C57BL/6, mouse, plasma, iv, 40 mg/kg
Procedure: (E, F) The pharmacokinetic analysis
as §3
Data are represented as means ± SEM.
Pharmacokinetic assays in vivo 140
as §4, §5, §6, §7, §8

[4] = target: T3, mouse CD47-IgV-Domain protein (Mus musculus, UniProt Q61735); test: MST binding assay to mouse CD47-IgV-Domain protein; conditions: figure 1B, read-out: KD, pep-20/mCD47
T3 construct: Human or mouse CD47-IgV-Domain proteins were labeled with NT-647 dye
T3 sequence (Q61735 19-125 limits assumed): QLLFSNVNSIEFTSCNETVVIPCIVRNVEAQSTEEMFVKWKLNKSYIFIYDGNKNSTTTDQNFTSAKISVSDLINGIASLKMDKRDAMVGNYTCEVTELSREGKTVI
Procedure: as §2

[5] = target: T4, mouse CD47/SIRPα interaction (Mus musculus, UniProt Q61735); test: Blocking assay, mouse CD47-IgV-Domain-hIg binding to CHO cells expressing mouse SIRPα (flow cytometry); conditions: figure 1D, approximately
T4 construct: Human or mouse CD47-IgV-Domain-hIg fusion proteins (20 nM, Sino Biological, China); purchased Sino Biological; host or cells: SIRPα partner: CHO cells stably expressing mouse SIRPα
T4 sequence (Q61735 19-125 limits assumed): T3 sequence (Q61735 19-125 limits assumed)
Procedure: as §1

[6] = Solubility as observed in the binding assay; type: physicochemical; conditions: higher titrating concentrations for the MST binding assay could not be used
Procedure: To assess the affinity of these candidate peptides toward human CD47, the preliminary binding assay was performed. […] In addition, due to the presence of consensus sequences, it can be hypothesized that the peptides pep-5, pep-9 and pep-19 may have higher affinities.
Table S1. Amino acid sequences and binding activity of selected peptides.
Name Peptide sequence Frequency (n/43) KD (μM)
Peptides targeting hCD47 were obtained by bio-panning, the affinity of peptides to hCD47

[7] = preliminary binding assay, Table S1, NT-647 labeled hCD47, 50 mM Tris, 150 mM NaCl, 10 mM MgCl2, 0.05% Tween-20, 0.5% DMSO, pH 7.5, 25°C, read-out: KD
[8] = 2 mg/kg s.c. daily over 14 days, days 0 and 14, n = 5

Compound: ASFSSYNRGYMY [pep-15]
- Kd [2, 7]: 14.7 ± 20 µM

Compound: AWSATWSNYWRH [pep-20]
- half-life (in vivo): 35.4 min
- Kd ([2]; human CD47-IgV-Domain protein, figure 1A, read-out: KD, pep-20/hCD47): 2.91 ± 1.04 µM
- Kd [2, 7]: 3.19 ± 2.27 µM
- Organ coefficient, Spleen (C57BL/6 naïve mice; 2 mg/kg s.c. daily for 14 days, n = 5, NS 0.3±0.04): 0.31±0.3
- Organ coefficient, thymus (C57BL/6 naïve mice; 2 mg/kg s.c. daily for 14 days, n = 5, NS 0.42±0.06): 0.36±0.07
- Organ coefficient, Heart (C57BL/6 naïve mice; 2 mg/kg s.c. daily for 14 days, n = 5, NS 0.55±0.03): 0.58±0.05
- Organ coefficient, Lung (C57BL/6 naïve mice; 2 mg/kg s.c. daily for 14 days, n = 5, NS 0.76±0.19): 0.77±0.18
- Organ coefficient, Kidney (C57BL/6 naïve mice; 2 mg/kg s.c. daily for 14 days, n = 5, NS 1.15±0.05): 1.14±0.06
- Organ coefficient, Liver (C57BL/6 naïve mice; 2 mg/kg s.c. daily for 14 days, n = 5, NS 5.02±0.3): 5.01±0.16
- Histopathology, H&E staining of major organs (C57BL/6 naïve mice; 2 mg/kg s.c. daily for 14 days, heart, liver, spleen, lung, kidney, thymus): no abnormalities
- Hemoglobin level (C57BL/6 naïve mice; [8]): no significant differences
- Red blood cell count (C57BL/6 naïve mice; [8]): no significant differences
- ALT (C57BL/6 naïve mice; serum, 2 mg/kg s.c. daily for 14 days, n = 5, NS 6.79±0.92): 7.03±0.86
- AST (C57BL/6 naïve mice; serum, 2 mg/kg s.c. daily for 14 days, n = 5, NS 23.40±4.41): 28.41±5.08
- Cmax [3]: 33600 ng/mL
- IC50 ([1]; 20 nM human CD47-IgV-Domain-hIg, CHO cells expressing human SIRPα, flow cytometry, figure 1C): 24.6 µM
- Blocking rate relative to pep-20 (%) [1]: 100%
- Kd [4]: 3.63 ± 1.71 µM
- IC50 [5]: ~12 µM

Compound: DRIPKIPGLPVL [pep-6]
- Kd [2, 7]: 9.27 ± 15.1 µM

Compound: GNKLTQLAASMM [pep-4]
- Kd [2, 7]: 5.32 µM

Compound: GTYSNYVSHINN [pep-9]
- Solubility [6]: poor solubility

Compound: KLLPSLPSVSRN [pep-14]
- Kd [2, 7]: > 500 µM

Compound: LPHYIYETLPVR [pep-5]
- Solubility [6]: poor solubility

Compound: TDLRYKEHYLYL [pep-3]
- Kd [2, 7]: 0.67 µM

Compound: VSPLELADNPMY [pep-10]
- Kd [2, 7]: 49.9 ± 54.8 µM

Other lines, results leading:

- Blocking rate relative to pep-20 (%) [1]: 83%
Compound: C[C@H](NC(=O)[C@H](CO)NC(=O)[C@H](Cc1c[nH]c2ccccc12)NC(=O)[C@@H](C)N)C(=O)N[C@H](C(=O)N[C@@H](Cc1c[nH]c2ccccc12)C(=O)N[C@@H](CO)C(=O)N[C@@H](CC(N)=O)C(=O)N[C@@H](Cc1ccc(O)cc1)C(=O)N[C@@H](Cc1c[nH]c2ccccc12)C(=O)N[C@@H](CCCNC(=N)N)C(=O)N[C@H](Cc1c[nH]cn1)C(=O)O)[C@@H](C)O [pep-20-D2] (H-[dA]WSATWSNYWR[dH]-OH)

- Blocking rate relative to pep-20 (%) [1]: 75%
Compound: C[C@H](NC(=O)[C@H](CO)NC(=O)[C@H](Cc1c[nH]c2ccccc12)NC(=O)[C@@H](C)N)C(=O)N[C@H](C(=O)N[C@@H](Cc1c[nH]c2ccccc12)C(=O)N[C@@H](CO)C(=O)N[C@@H](CC(N)=O)C(=O)N[C@@H](Cc1ccc(O)cc1)C(=O)N[C@@H](Cc1c[nH]c2ccccc12)C(=O)N[C@H](CCCNC(=N)N)C(=O)N[C@H](Cc1c[nH]cn1)C(=O)O)[C@@H](C)O [pep-20-D3] (H-[dA]WSATWSNYW[dR][dH]-OH)

- Blocking rate relative to pep-20 (%) [1]: 96%
Compound: C[C@H](NC(=O)[C@H](CO)NC(=O)[C@H](Cc1c[nH]c2ccccc12)NC(=O)[C@@H](C)N)C(=O)N[C@H](C(=O)N[C@@H](Cc1c[nH]c2ccccc12)C(=O)N[C@@H](CO)C(=O)N[C@@H](CC(N)=O)C(=O)N[C@@H](Cc1ccc(O)cc1)C(=O)N[C@H](Cc1c[nH]c2ccccc12)C(=O)N[C@H](CCCNC(=N)N)C(=O)N[C@H](Cc1c[nH]cn1)C(=O)O)[C@@H](C)O [pep-20-D4] (H-[dA]WSATWSNY[dW][dR][dH]-OH)

- Kd [2, 7]: 161 ± 111 µM
Compound: ASYTDWWRNRLQ [pep-18]

- Kd [2, 7]: 10.7 ± 8.89 µM
Compound: LYAGKLERISRG [pep-16]

- Solubility [6]: poor solubility
Compound: VSYKEHDMLYSF [pep-19]
